Our source for the IC50 values is patent publication US11512069B2, “TLR7/8 antagonists and uses thereof” (Merck Patent GmbH, priority 2016, dated 2022).

Some results are limits rather than exact numbers.

This experiment has as its target T1, TLR7 (Homo sapiens, UniProt Q9NYK1).
T1 construct: expressed in transfected cells; host or cells: HEK cells carrying TLR7 and an NF-kB reporter read with Steady-Glo
T1 sequence (Q9NYK1 27-1049): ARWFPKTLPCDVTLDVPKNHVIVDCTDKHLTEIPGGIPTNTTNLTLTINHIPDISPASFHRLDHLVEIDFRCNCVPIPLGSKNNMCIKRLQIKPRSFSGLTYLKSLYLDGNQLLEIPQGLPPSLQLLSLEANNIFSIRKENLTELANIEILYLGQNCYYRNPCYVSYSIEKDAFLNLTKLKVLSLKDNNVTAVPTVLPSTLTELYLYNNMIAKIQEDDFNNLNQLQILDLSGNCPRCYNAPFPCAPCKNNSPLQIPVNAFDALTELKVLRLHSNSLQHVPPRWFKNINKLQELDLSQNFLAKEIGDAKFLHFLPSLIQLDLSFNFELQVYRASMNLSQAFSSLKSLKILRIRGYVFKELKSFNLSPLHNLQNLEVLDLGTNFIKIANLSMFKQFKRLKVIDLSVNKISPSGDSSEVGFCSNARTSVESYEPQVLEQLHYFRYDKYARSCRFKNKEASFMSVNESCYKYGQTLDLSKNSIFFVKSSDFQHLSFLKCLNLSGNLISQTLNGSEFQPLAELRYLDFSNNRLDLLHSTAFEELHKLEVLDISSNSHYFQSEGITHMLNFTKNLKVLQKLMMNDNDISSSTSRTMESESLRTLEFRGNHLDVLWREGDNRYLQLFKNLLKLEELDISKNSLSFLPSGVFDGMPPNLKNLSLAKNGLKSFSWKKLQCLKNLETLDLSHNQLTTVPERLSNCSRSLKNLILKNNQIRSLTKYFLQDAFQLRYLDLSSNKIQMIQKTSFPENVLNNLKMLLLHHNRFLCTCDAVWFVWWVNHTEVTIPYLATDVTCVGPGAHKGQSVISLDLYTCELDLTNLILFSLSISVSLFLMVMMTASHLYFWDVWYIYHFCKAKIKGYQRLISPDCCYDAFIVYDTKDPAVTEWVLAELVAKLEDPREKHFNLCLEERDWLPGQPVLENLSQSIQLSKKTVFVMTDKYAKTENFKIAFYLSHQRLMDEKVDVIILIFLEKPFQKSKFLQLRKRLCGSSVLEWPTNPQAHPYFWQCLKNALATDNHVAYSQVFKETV
Kind of experiment: HEK Cell Assay (TLR7/NFKb HEK reporter cells, Steady-Glo). The settings on record: compound 30 min, then R*48 agonist 5 hours, Steady-Glo readout, read-out: Potency. Format: cell-based. The protocol: Example 32: HEK Cell Assay
Into 384 CulturePlates (Corning 3707) was placed 5000 c/w of TLR7/NFKb HEK cells in 30 uL DMEM without Phenil red (gibco #31053) and 10% i.a. FCS and 2 mM L-ZGLutamin. The cells were incubated for 24 h at 37 degrees Celsius, 10% carbon dioxide and 90% relative humidity, 3 uL of controls, standards, and compounds were dispensed to wells, incubated for 30 min then 3 uL of R*48 agonist in 20 mM Hepes was added. After incubation for 5 hours, it was allowed to stand at room temperature for 15 min, 10 uL of Steady-Glo substrate reagent was added and shake assay plate for 5 min at 1500 rpm. The assay plate was allowed to sit for 30 min at room temperature and then read plate on EnVision.
For `C[C@H]1C[C@@H](NC(=O)CC2CC2(F)F)C[C@@H](c2ccc(C#N)c3nccnc23)C1` (mixture of isomers) [Compound 156, N-[(cis-1,3,5)-3-(8-cyanoquinoxalin-5-yl)-5-methylcyclohexyl]-2-(2,2-difluorocyclopropyl)acetamide], the IC50 was 1 to 20 µM.

For `C[C@@H]1C[C@H](c2ccc(C(F)(F)F)c3ncccc23)CN(C(=O)CC2CCN(C)CC2)C1` (racemic) [Compound 4, cis-2-(1-Methyl-piperidin-4-yl)-1-[3-methyl-5-(8-trifluoromethyl-quinolin-5-yl)-piperidin-1-yl]-ethanone], the IC50 was less than 1 µM.

With `CC(C)N1CCC(CC(=O)N2C[C@H](C)C[C@H](c3ccc(C#N)c4ncccc34)C2)CC1` (racemic) [Compound 19], the IC50 is less than 1 µM.

As to `C[C@@H]1C[C@H](c2ccc(C#N)c3ncccc23)CN(C(=O)CN2CC3CCC2CN3)C1` (mixture of isomers) [Compound 116, 5-[(3R,5R)-1-(2-2,5-Diaza-bicyclo[2.2.2]oct-2-yl-acetyl)-5-methyl-piperidin-3-yl]-quinoline-8-carbonitrile], the IC50 was less than 1 µM.

Consider `C[C@H]1C[C@@H](N)C[C@@H](c2ccc(C#N)c3nccnc23)C1` (racemic) [Compound 120, 8-((S,3R,5R)-3-amino-5-methylcyclohexyl) quinoxaline-5-carbonitrile], for which the IC50 is less than 1 µM.

For `C[C@H]1C[C@@H](NC(=O)CC(C)(C)C)C[C@@H](c2ccc(C#N)c3nccnc23)C1` (racemic) [Compound 129, N-[(cis-1,3,5)-3-(8-cyanoquinoxalin-5-yl)-5-methylcyclohexyl]-3,3-dimethylbutanamide], the IC50 is less than 1 µM.

On to `C[C@H]1C[C@@H](NC(=O)CC(C)(C)C)C[C@H](c2ccc(C#N)c3nccnc23)C1` (racemic) [Compound 130, N-[(1,cis-3,trans-5,cis)-3-(8-cyanoquinoxalin-5-yl)-5-methylcyclohexyl]-3,3-dimethylbutanamide], for which the IC50 fell in the range of 1 to 20 µM.

`C[C@H]1C[C@@H](NC(=O)CN(C)C)C[C@@H](c2ccc(C#N)c3nccnc23)C1` (racemic) [Compound 131, N-[(cis-1,3,5)-3-(8-cyanoquinoxalin-5-yl)-5-methylcyclohexyl]-2-(dimethylamino)acetamide]: the IC50 was less than 1 µM.

As for `C[C@H]1C[C@@H](NC(=O)CN(C)C)C[C@H](c2ccc(C#N)c3nccnc23)C1` (racemic) [Compound 132, N-[(1,cis-3,trans-5,cis)-3-(8-cyanoquinoxalin-5-yl)-5-methylcyclohexyl]-2-(dimethylamino)acetamide], the IC50 lay in the range of 1 to 20 µM.

Consider `C[C@H]1C[C@@H](NC(=O)[C@@H](N)C(F)(F)F)C[C@@H](c2ccc(C#N)c3nccnc23)C1` (racemic) [Compound 143, (2R)-2-amino-N-((cis-1,3,5)-3-(8-cyanoquinoxalin-5-yl)-5-methylcyclohexyl)-3,3,3-trifluoropropanamide], for which the IC50 fell in the range of 1 to 20 µM.

As to `C[C@H]1C[C@@H](NC(=O)[C@H](N)C(F)(F)F)C[C@@H](c2ccc(C#N)c3nccnc23)C1` (racemic) [Compound 144, (2S)-2-amino-N-((cis-1,3,5)-3-(8-cyanoquinoxalin-5-yl)-5-methylcyclohexyl)-3,3,3-trifluoropropanamide], the IC50 lay within 1 to 20 µM.

For `C[C@H]1C[C@@H](NC(=O)[C@H](N)C(F)(F)F)C[C@H](c2ccc(C#N)c3nccnc23)C1` (racemic) [Compound 145, (2R)-2-amino-N-((1,cis-3cis-5,trans)-3-(8-cyanoquinoxalin-5-yl)-5-methylcyclohexyl)-3,3,3-trifluoropropanamide], the IC50 was in the range of 1 to 20 µM.

Consider `C[C@H]1C[C@@H](NC(=O)[C@@H](N)C(F)(F)F)C[C@H](c2ccc(C#N)c3nccnc23)C1` (racemic) [Compound 146, (2S)-2-amino-N-((1,cis-3cis-5,trans)-3-(8-cyanoquinoxalin-5-yl)-5-methylcyclohexyl)-3,3,3-trifluoropropanamide], for which the IC50 fell in the range of 1 to 20 µM.

In the case of `COCCN[C@@H]1C[C@H](C)C[C@@H](c2ccc(C(F)(F)F)c3ncccc23)C1` (racemic) [Compound 151, (1,trans-3,trans-5,cis)-N-(2-methoxyethyl)-3-methyl-5-(8-(trifluoromethyl)quinolin-5-yl)cyclohexanamine], the IC50 is 1 to 20 µM.

For the compound `C[C@H]1C[C@@H](NC(=O)CN2CCCCC2)C[C@@H](c2ccc(C#N)c3nccnc23)C1` (racemic) [Compound 157, N-[(cis-1,3,5)-3-(8-cyanoquinoxalin-5-yl)-5-methylcyclohexyl]-2-(piperidin-1-yl)acetamide], the IC50 is less than 1 µM.

`C[C@H]1C[C@@H](NC(=O)CN2CCN(C)CC2)C[C@@H](c2ccc(C#N)c3nccnc23)C1` (racemic) [Compound 158, N-[(cis-1,3,5)-3-(8-cyanoquinoxalin-5-yl)-5-methylcyclohexyl]-2-(4-methylpiperazin-1-yl)acetamide]: the IC50 is less than 1 µM.

On to `COCCN[C@@H]1C[C@H](C)C[C@H](c2ccc(F)c3nccnc23)C1` (racemic) [Compound 159, (cis-1,3,5)-3-(8-fluoroquinoxaline-5-yl)-N-(2-methoxyethyl)-5-methylcyclohexan-1-amine], for which the IC50 lay in the range of 1 to 20 µM.

Take `C[C@@H]1C[C@H](c2ccc(C(F)(F)F)c3ncccc23)CN(C)C1` (relative stereo) [Compound 5]: the IC50 is greater than 20 µM.

In the case of `C[C@@H]1C[C@@H](c2ccc(C(F)(F)F)c3ncccc23)CN(C)C1` (relative stereo) [Compound 6], the IC50 is greater than 20 µM.

Regarding `C[C@@H]1C[C@H](c2ccc(C(F)(F)F)c3ncccc23)CN(CCO)C1` (relative stereo) [Compound 7], the IC50 was greater than 20 µM.

Take `C[C@@H]1C[C@@H](c2ccc(C(F)(F)F)c3ncccc23)CN(CCO)C1` (relative stereo) [Compound 8]: the IC50 is greater than 20 µM.

Regarding `CC(=O)N1C[C@@H](C)C[C@H](c2ccc(C(F)(F)F)c3ncccc23)C1` (relative stereo) [Compound 9, trans-1-[3-Methyl-5-(8-trifluoromethyl-quinolin-5-yl)-piperidin-1-yl]-ethanone], the IC50 was greater than 20 µM.

Consider `CC(=O)N1C[C@H](C)C[C@H](c2ccc(C(F)(F)F)c3ncccc23)C1` (relative stereo) [Compound 10, cis-1-[3-Methyl-5-(8-trifluoromethyl-quinolin-5-yl)-piperidin-1-yl]-ethanone], for which the IC50 was greater than 20 µM.

For `C[C@@H]1C[C@@H](c2ccc(C(F)(F)F)c3ncccc23)CN(C(=O)CCn2cccn2)C1` (relative stereo) [Compound 13], the IC50 was greater than 20 µM.

Take `C[C@@H]1C[C@H](c2ccc(C(F)(F)F)c3ncccc23)CN(C(=O)Cn2cccn2)C1` (relative stereo) [Compound 14]: the IC50 is greater than 20 µM.

On to `C[C@@H]1C[C@@H](c2ccc(C(F)(F)F)c3ncccc23)CN(C(=O)Cn2cccn2)C1` (relative stereo) [Compound 15], for which the IC50 was greater than 20 µM.

For `C[C@@H]1C[C@H](c2ccc(C(F)(F)F)c3ncccc23)CN(C(=O)CN2CCOCC2)C1` (relative stereo) [Compound 16], the IC50 is greater than 20 µM.

As for `C[C@@H]1C[C@H](c2ccc(C#N)c3ncccc23)CN(C(=O)Cc2cccnc2)C1` (relative stereo) [Compound 20], the IC50 was greater than 20 µM.

As for `C[C@@H]1C[C@H](c2ccc(C#N)c3ncccc23)CN(C(=O)CCc2cccnc2)C1` (relative stereo) [Compound 24], the IC50 is greater than 20 µM.

As to `C[C@@H]1C[C@H](c2ccc(C#N)c3ncccc23)CN(C(=O)CC(F)(F)F)C1` (relative stereo) [Compound 26], the IC50 was greater than 20 µM.

For `C[C@@H]1C[C@H](c2ccc(C#N)c3ncccc23)CN(C(=O)CC2CC2)C1` (relative stereo) [Compound 28, Cis 5-[1-(2-Cyclopropyl-acetyl)-5-methyl-piperidin-3-yl]-quinoline-8-carbonitrile], the IC50 fell in the range of 1 to 20 µM.

Turning to `C[C@@H]1C[C@H](c2ccc(C#N)c3ncccc23)CN(C(=O)CN2CCN(C)CC2)C1` (relative stereo) [Compound 29], the IC50 was less than 1 µM.
